# Results published in patent publication US8501783B2, “Conformationally restricted urea inhibitors of soluble epoxide hydrolase” (The Regents of the University of California, priority 2006, dated 2013).
# pIC50: −log10 of the molar value.
# Molecular target: human sEH (Homo sapiens (Human), UniProt P34913)
# Experiment: Inhibition of human soluble epoxide hydrolase (IC50; one of three substrate methods);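 further: enzyme expressed in baculovirus and affinity-purified, assays run in triplicate, with substrate and read-out differing among the three methods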
# Type: biochemical
# Settings: not given
# Sequence of human sEH (P34913 whole entry): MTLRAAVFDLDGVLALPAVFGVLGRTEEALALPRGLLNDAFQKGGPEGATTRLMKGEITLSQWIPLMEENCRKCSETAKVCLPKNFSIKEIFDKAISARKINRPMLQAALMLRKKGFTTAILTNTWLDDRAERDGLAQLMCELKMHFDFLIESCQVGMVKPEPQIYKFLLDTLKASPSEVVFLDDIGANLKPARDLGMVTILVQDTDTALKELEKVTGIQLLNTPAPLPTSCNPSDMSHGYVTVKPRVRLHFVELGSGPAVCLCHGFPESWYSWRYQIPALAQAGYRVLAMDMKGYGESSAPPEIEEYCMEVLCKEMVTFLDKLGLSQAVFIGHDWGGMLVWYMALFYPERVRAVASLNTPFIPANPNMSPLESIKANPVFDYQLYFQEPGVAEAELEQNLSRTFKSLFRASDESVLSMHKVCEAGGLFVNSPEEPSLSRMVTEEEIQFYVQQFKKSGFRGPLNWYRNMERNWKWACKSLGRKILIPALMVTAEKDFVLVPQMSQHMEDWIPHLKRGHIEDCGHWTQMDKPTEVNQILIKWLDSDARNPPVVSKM
row,SMILES,pIC50
1,"COC(=O)c1cccc(C(=O)N2CCC(NC(=O)NC34CC5CC(CC(C5)C3)C4)CC2)c1 [Compound 1203, 3-[4-(3-Adamantan-1-yl-ureido)-piperidine-1-carbonyl]-benzoic acid methyl ester]",8.96
2,"COC(=O)CCC(=O)N1CCC(NC(=O)NC23CC4CC(CC(C4)C2)C3)CC1 [Compound 1205, 4-[4-(3-Adamantan-1-yl-ureido)-piperidin-1-yl]-4-oxo-butanoic acid methyl ester]",8.05
3,"O=C(NC1CCN(C(=O)c2ccncc2)CC1)NC12CC3CC(CC(C3)C1)C2 [Compound 1433, N-(1-(pyridine-4-carbonyl)piperidin-4-yl)-N′-(adamant-1-yl)urea]",8.77
4,"O=C(NC1CCN(C(=O)c2cccnc2)CC1)NC12CC3CC(CC(C3)C1)C2 [Compound 1434, N-(1-(Pyridine-3-carbonyl)piperidin-4-yl)-N′-(adamant-1-yl)urea]",8.68
5,"O=C(O)CCCC(=O)N1CCC(NC(=O)NC23CC4CC(CC(C4)C2)C3)CC1 [Compound 1501, 5-[4-(3-Adamantan-1-yl-ureido)-piperidin-1-yl]-5-oxo-pentanoic acid]",7.14
6,"O=C(NC1CCN(C(=O)c2cccc(C(=O)O)c2)CC1)NC12CC3CC(CC(C3)C1)C2 [Compound 1505, 3-[4-(3-Adamantan-1-yl-ureido)-piperidine-1-carbonyl]-benzoic acid]",8.00
7,"O=C(NC1CCN(C(=O)c2ccccc2C(=O)O)CC1)NC12CC3CC(CC(C3)C1)C2 [Compound 1507, 2-[4-(3-Adamantan-1-yl-ureido)-piperidine-1-carbonyl]-benzoic acid]",6.79
8,"O=C(NC1CCN(C(=O)c2ccc(C(=O)O)cc2)CC1)NC12CC3CC(CC(C3)C1)C2 [Compound 1523, 4-[4-(3-Adamantan-1-yl-ureido)-piperidine-1-carbonyl]-benzoic acid]",8.48

# Same assay, conditions: recombinant human sEH
row,SMILES,pIC50
1,"CCCC(=O)N1CCC(CNC(=O)NC23CC4CC(CC(C4)C2)C3)CC1 [Compound 1120, N-((1-butyrylpiperidin-4-yl)methyl)-N′-(adamant-1-yl)urea]",8.17
2,"CCC(=O)N1CCC(CNC(=O)NC23CC4CC(CC(C4)C2)C3)CC1 [Compound 1162, N-((1-propanoylpiperidin-4-yl)methyl)-N′-(adamant-1-yl)urea]",8.06
3,"COC(=O)c1ccccc1C(=O)N1CCC(NC(=O)NC23CC4CC(CC(C4)C2)C3)CC1 [Compound 1202, 2-[4-(3-Adamantan-1-yl-ureido)-piperidine-1-carbonyl]-benzoic acid methyl ester]",8.77
4,O=C(NCC1CCN(C(=O)c2ccccn2)CC1)NC12CC3CC(CC(C3)C1)C2 [Compound 1207],8.12
5,"COC(=O)CCC(=O)N1CCC(CNC(=O)NC23CC4CC(CC(C4)C2)C3)CC1 [Compound 1208, 4-{4-[(3-Adamantan-1-yl-ureido)-methyl]-piperidin-1-yl}-4-oxo-butanoic acid methyl ester]",8.21
6,"COC(=O)c1cccc(C(=O)N2CCC(CNC(=O)NC34CC5CC(CC(C5)C3)C4)CC2)c1 [Compound 1209, 3-{4-[(3-Adamantan-1-yl-ureido)-methyl]-piperidine-1-carbonyl}-benzoic acid methy ester]",8.39
7,"COC(=O)c1ccccc1C(=O)N1CCC(CNC(=O)NC23CC4CC(CC(C4)C2)C3)CC1 [Compound 1210, 2-{4-[(3-Adamantan-1-yl-ureido)-methyl]-piperidine-1-carbonyl}-benzoic acid methy ester]",8.74
8,"COC(=O)c1ccc(C(=O)N2CCC(CNC(=O)NC34CC5CC(CC(C5)C3)C4)CC2)cc1 [Compound 1211, 4-{4-[(3-Adamantan-1-yl-ureido)-methyl]-piperidine-1-carbonyl}-benzoic acid methyl ester]",8.82
9,"COC(=O)CCCC(=O)N1CCC(CNC(=O)NC23CC4CC(CC(C4)C2)C3)CC1 [Compound 1212, 5-{4-[(3-Adamantan-1-yl-ureido)-methyl]-piperidin-1-yl}-5-oxo-pentanoic acid methyl ester]",8.47
10,O=C(NCC1CCN(C(=O)c2ccncc2)CC1)NC12CC3CC(CC(C3)C1)C2 [Compound 1435],8.27
11,"O=C(NCC1CCN(C(=O)c2cccnc2)CC1)NC12CC3CC(CC(C3)C1)C2 [Compound 1436, N-((1-(pyridine-3-carbonyl)piperidin-4-yl)methyl)-N′-(adamant-1-yl)urea]",8.14
12,"O=C(O)CCCC(=O)N1CCC(CNC(=O)NC23CC4CC(CC(C4)C2)C3)CC1 [Compound 1500, 5-{4-[(3-Adamantan-1-yl-ureido)-methyl]-piperidin-1-yl}-5-oxo-pentanoic acid]",7.38
13,"O=C(O)CCC(=O)N1CCC(CNC(=O)NC23CC4CC(CC(C4)C2)C3)CC1 [Compound 1502, 4-{4-[(3-Adamantan-1-yl-ureido)-methyl]-piperidin-1-yl}-4-oxo-butanoic acid]",6.76
14,"O=C(O)CCC(=O)N1CCC(NC(=O)NC23CC4CC(CC(C4)C2)C3)CC1 [Compound 1503, 4-[4-(3-Adamantan-1-yl-ureido)-piperidin-1-yl]-4-oxo-butanoic acid]",6.59
15,"O=C(NCC1CCN(C(=O)c2cccc(C(=O)O)c2)CC1)NC12CC3CC(CC(C3)C1)C2 [Compound 1504, 3-{4-[(3-Adamantan-1-yl-ureido)-methyl]-piperidine-1-carbonyl}-benzoic acid]",7.36
16,"O=C(NCC1CCN(C(=O)c2ccccc2C(=O)O)CC1)NC12CC3CC(CC(C3)C1)C2 [Compound 1506, 2-{4-[(3-Adamantan-1-yl-ureido)-methyl]-piperidine-1-carbonyl}-benzoic acid]",6.39
17,"O=C(NCC1CCN(C(=O)c2ccc(C(=O)O)cc2)CC1)NC12CC3CC(CC(C3)C1)C2 [Compound 1522, 4-{4-[(3-Adamantan-1-yl-ureido)-methyl]-piperidine-1-carbonyl}-benzoic acid]",7.93
18,"O=C(NC1CCCCC1)NC12CN3CN(CN(C3)C1)C2 [Compound 1549, 1-Cyclohexyl-3-(1,3,5-triaza-tricyclo[3.3.1.1^3.7]dec-7-yl)-urea]",4.87
19,"CCCCCCCCCCCCNC(=O)NC1CCNCC1 [Compound 1550, 1-Dodecyl-3-piperidin-4-yl-urea]",7.37
20,"CC(C)(C)OC(=O)N1CCC(NC(=O)NC2CCCCC2)CC1 [Compound 1551, 4-(3-Cyclohexyl-ureido)-piperidine-1-carboxylic acid tert-butyl ester]",8.37

row,SMILES,pIC50
1,"CCCCCCCCCCCCNC(=O)Nc1ccc2[nH]ccc2c1 [Compound 1553, 1-Dodecyl-3-(1H-indol-5-yl)-urea]",6.19
2,"O=C(Nc1ccc2[nH]ccc2c1)NC1CCCCC1 [Compound 1554, 1-Cyclohexyl-3-(1H-indol-5-yl)-urea]",7.06
3,O=C(NCC1CCN(C(=O)C(F)(F)F)CC1)NC12CC3CC(CC(C3)C1)C2 [Compound 1556],8.74
4,"O=C(NCc1ccncc1)Oc1cccc(-c2ccccc2)c1 [Compound 1557, Pyridin-4 ylmethyl-carbamic acid biphenyl-3-yl ester]",4.94
5,"Cc1c(COC(=O)NCc2ccncc2)cccc1-c1ccccc1 [Compound 1558, Pyridin-4-ylmethyl-carbamic acid 2-methyl-biphenyl-3-ylmethyl ester]",5.88
6,"O=C(NCc1cccnc1)Oc1cccc(-c2ccccc2)c1 [Compound 1559, Pyridin-3-ylmethyl-carbamic acid biphenyl-3-yl ester]",4.64
7,"Cc1c(COC(=O)NCc2cccnc2)cccc1-c1ccccc1 [Compound 1560, Pyridin-3-ylmethyl-carbamic acid 2-methyl-biphenyl-3-ylmethyl ester]",5.36
8,"O=C(Oc1cccc(-c2ccccc2)c1)N1CCOCC1 [Compound 1561, Morpholine-4-carboxylic acid biphenyl-3-yl ester]",4.18
9,"CCCCCCCCCCCCNC(=O)Nc1ccc2[nH]cnc2c1 [Compound 1568, 1-(1H-Benzoimidazol-5-yl)-3-dodecyl-urea]",5.30
10,"O=C(Nc1ccc2[nH]cnc2c1)NC1CCCCC1 [Compound 1569, 1-(1H-Benzoimidazol-5-yl)-3-cyclohexyl-urea]",6.34
11,"O=C(Nc1ccc(OC(F)(F)F)cc1)NC1CCNCC1 [Compound 1570, 1-Piperidin-4-yl-3-(4-trifluoromethoxy-phenyl)-urea]",5.64
12,"O=C(Nc1ccc(OC(F)(F)F)cc1)NC1CCN(C(=O)C(F)(F)F)CC1 [Compound 1591, 1-[1-(2,2,2-Trifluoro-acetyl)-piperidin-4-yl]-3-(4-trifluoromethoxy-phenyl)-urea]",9.40
13,O=C(NC1CCCCC1)NC1CCNCC1 [Compound 1602],6.25
14,"O=C(NC1CCNCC1)NC1CCNCC1 [Compound 1604, 1,3-Di-piperidin-4-yl-urea]",4.00
15,"O=C(NC1CCN(C(=O)c2ccccc2)CC1)NC1CCN(C(=O)c2ccccc2)CC1 [Compound 1605, 1,3-Bis-(1-benzoyl-piperidin-4-yl)urea]",8.32
16,"CC(=O)N1CCC(NC(=O)C23CC4CC(CC(C4)C2)C3)CC1 [Compound 1641, Adamantane-1-carboxylic acid (1-acetyl-piperidin-4-yl)-amide]",4.90
17,"O=C(N1CCC(NC(=O)C23CC4CC(CC(C4)C2)C3)CC1)C(F)(F)F [Compound 1643, Adamantane-1-carboxylic acid [1-(2,2,2-trifluoro-acetyl)-piperidin-4-yl]-amide]",5.38
18,O=C(CC12CC3CC(CC(C3)C1)C2)NC1CCN(C(=O)C(F)(F)F)CC1 [Compound 1644],7.55
19,"CN(C)c1cccc2c(S(=O)(=O)N3CCC(NC(=O)Nc4ccc(OC(F)(F)F)cc4)CC3)cccc12 [Compound 1710, 1-[1-(5-dimethylamino-naphthalene-1-sulfonyl)-piperidin-4-yl]-3-(4-trifluoromethoxy-phenyl)-urea]",9.10

# System: not listed separately
# Experiment: Pharmacokinetic screening in dogs, oral administration, plasma LC-MS/MS
# Settings: dog, plasma, po, 0.3 mg/kg
row,SMILES,AUC [µM·h]
1,"CC(=O)N1CCC(CNC(=O)NC23CC4CC(CC(C4)C2)C3)CC1 [Compound 1156, N-((1-acetylpiperidin-4-yl)methyl)-N′-(adamant-1-yl)urea]",0.0817
